Laboratory results from patent publication US20160000762A1, “IMPROVING COGNITIVE FUNCTION” (THE REGENTS OF THE UNIVERSITY OF CALIFORNIA, priority 2013, published 2016).

Assays:
RasGRF1, p-ERK, p-CREB = assay: Ras signaling immunofluorescence, primary hippocampal neurons; format: cell-based, Sprague-Dawley rats; conditions: 5 μM
Protocol: Primary neuron culture and immunostaining. Primary hippocampal neurons from E19 Sprague-Dawley rats were cultured at 150 cells/mm^2 as previously described (Pak et al., 2001). Neurons were transfected using Lipofectamine™ 2000 (Invitrogen, Carlsbad, Calif., USA) or calcium phosphate precipitation with GFP+PLL, GFP+APP shRNA, or GFP+APP and treated with BTA-EG4. The following antibodies were used: mouse anti-GFP (Novus Biologicals, 9F9.F9), rabbit anti-GFP (Invitrogen, A11122), rabbit anti-GluR1 (Calbiochem, PC246), mouse anti-GluR2 (BD Pharmagen, 556341), mouse anti-postsynaptic density (PSD)-95 (NeuroMabs, Davis, Calif., USA), mouse anti-Synaptophysin (Sigma Aldrich, s5768), rabbit APP N-terminal (Sigma-Aldrich, A8967), anti-Ras (BD Biosciences, 610001), anti-RasGRF1 (Santa Cruz, C-20; BD Biosciences, 610149), anti-ERK1/2 (Cell Signaling, 4695), anti-p-ERK1/2 (Invitrogen, 36880), anti-CREB (Cell Signaling, D76D11), anti-p-CREB (Millipore, 06-519), and mouse anti-c-Myc (Novus Biologicals, 9E10). Cultured hippocampal neuron images were acquired by LSM 510 laser scanning confocal microscope (Zeiss). Confocal zseries image stacks encompassing entire dendrite segments were analyzed using MetaMorph software (Universal Imaging Corporation, Downington, Pa., USA).
We next investigated the molecular mechanism by which BTA-EG4 may alter dendritic spine formation. Ras, a small GTPase, is involved in dendritic spine formation and synaptic delivery of AMPA receptors (Zhu et al., 2002; Lee et al., 2011). Moreover, abnormal Ras signaling is associated with neurodegenerative disease, causing cognitive impairments and learning deficits (Stornetta and Zhu, 2011). Thus, we initially investigated the effect of BTA-EG4 on Ras signaling by treating primary hippocampal neurons with BTA-EG4 (5 μM) or control for 24 hrs. […] Further, levels of active Ras were elevated following BTA-EG4 treatment (5 μM) in primary cortical neurons (FIG. 7C) and following BTA-EG4 treatment (30 mg/kg) in wild-type mice (FIG. 7D). We also examined whether BTA-EG4 can alter the activity of downstream Ras signaling proteins, including p-ERK and p-CREB.
Since we observed that BTA-EG4 and APP could possibly regulate dendritic spine density through Ras-dependent mechanisms, we then examined whether BTA-EG4 requires APP to modulate Ras signaling. To test this hypothesis, primary hippocampal neurons were transfected with GFP and APP shRNA or GFP and APP, treated with control or BTA-EG4 (5 μM), then immunostained against RasGRF1 (FIGS. 9A, 9B).

dendritic spines = assay: Golgi staining, dendritic spines of APP knockout mice; format: in vivo; conditions: hippocampal CA1 neurons; 30 mg/kg, 2 weeks
Description: Animals. Wild-type C57BL/6J and APP knockout mice (B6.12957-APPtm1Dbo/J) were obtained from Jackson Laboratories (Bar Harbor, Me., USA). CD1 mice were obtained from Vivasource. All animal experiments were approved by the Institutional Animal Care and Use Committees at Georgetown University and Johns Hopkins University. All animals were maintained according to protocols approved by the Animal Welfare and Use Committee at both institutes.
Golgi staining and morphological analysis of dendritic spines. To analyze dendritic spine density and morphology in brain, FD RAPID GOLGISTAIN KIT™ (FD NeuroTechnologies, Ellicott City, Md., USA) was used. Dissected mouse brains were immersed in Solution A and B for 2 weeks in dark conditions at room temperature and transferred into Solution C for 24 h at 4° C. Brains were sliced using a VT1000S Vibratome (Leica, Bannockburn, Ill., USA) at 150 μm thickness. Dendritic images were acquired by Axioplan 2 (Zeiss, Oberkochen, Germany) under brightfield microscopy. Spine width, length, and linear density of cortical layers II/III and CA1 of hippocampus were measured using Scion image software (Scion Corporation, Frederick, Md., USA). Images were coded, and dendritic spines counted in a blinded manner. Spines from 0.2 to 2 μm in length were included for analysis. All morphological analysis was done blind to experimental conditions. […]

## BTA-EG4
RasGRF1, p-ERK, p-CREB; 24 h
  levels of RasGRF1: increased
  phosphorylation of CREB: increased
  phosphorylation of ERK: increased
  total ERK or CREB levels: without altering
RasGRF1, p-ERK, p-CREB; knockdown of APP
  RasGRF1: did not increase
  p-CREB: ineffective
  p-ERK: ineffective
RasGRF1, p-ERK, p-CREB; overexpression of APP
  RasGRF1: significantly increased
  p-CREB: significantly increased
  p-ERK: significantly increased
Dendritic spines
  dendritic spine density: did not find a statistically significant increase
